Experimental data from the NIST ThermoML archive (doi:10.1016/j.jct.2009.04.002).
“And” between values parts separate entries of the source, which are not always exact repeats. Equal values may be shown once. ± gives the expanded uncertainty stated by the source.

Details: Liquid

CC(C)CCCCCCCOC(=O)c1ccccc1C(=O)OCCCCCCCC(C)C
Details	mass density, 278.15 K	mass density, 283.15 K	mass density, 288.15 K	mass density, 293.15 K	mass density, 298.15 K	viscosity, 278.15 K	viscosity, 283.15 K	viscosity, 288.15 K	viscosity, 293.15 K	viscosity, 298.15 K
Rotational Automated Viscometer	–	–	–	–	–	404.6 ± 8.4 mPa·s and 413.1 ± 8.4 mPa·s and 412.2 ± 8.3 mPa·s	261.2 ± 5.5 mPa·s and 267 ± 5.4 mPa·s and 266.2 ± 5.4 mPa·s	175.9 ± 3.7 mPa·s and 179.4 ± 3.6 mPa·s and 178.9 ± 3.6 mPa·s	122.3 ± 2.5 mPa·s and 124.5 ± 2.5 mPa·s and 124.4 ± 2.5 mPa·s	87.52 ± 1.8 mPa·s and 89.06 ± 1.8 mPa·s and 88.94 ± 1.8 mPa·s
SVM3000 rotational viscometer	977.3 ± 14 kg/m3 and 977.5 ± 14 kg/m3 and 977.1 ± 14 kg/m3	973.8 ± 14 kg/m3 and 974 ± 14 kg/m3 and 973.5 ± 14 kg/m3	970.2 ± 14 kg/m3 and 970.4 ± 14 kg/m3 and 969.9 ± 14 kg/m3	966.7 ± 14 kg/m3 and 966.9 ± 14 kg/m3 and 966.4 ± 14 kg/m3	963.2 ± 14 kg/m3 and 963.4 ± 14 kg/m3 and 962.9 ± 14 kg/m3	–	–	–	–	–

Details	mass density, 283.15 K	mass density, 298.15 K	viscosity, 303.15 K
100 kPa, Falling or rolling sphere viscometry	–	–	65 ± 5.3 mPa·s and 64.6 ± 5.2 mPa·s
100 kPa, Vibrating tube method	973.4 ± 1.4 kg/m3 and 973.5 ± 1.4 kg/m3 and 973.1 ± 1.4 kg/m3	963 ± 1.4 kg/m3 and 963.2 ± 1.4 kg/m3 and 962.8 ± 1.4 kg/m3	–
1000 kPa, Falling or rolling sphere viscometry	–	–	66.4 ± 5.4 mPa·s and 66 ± 5.3 mPa·s
1000 kPa, Vibrating tube method	973.7 ± 1.4 kg/m3 and 974 ± 1.4 kg/m3 and 973.6 ± 1.4 kg/m3	963.4 ± 1.4 kg/m3 and 963.8 ± 1.4 kg/m3 and 963.3 ± 1.4 kg/m3	–
5000 kPa, Falling or rolling sphere viscometry	–	–	72.9 ± 5.9 mPa·s and 72.6 ± 5.9 mPa·s
5000 kPa, Vibrating tube method	975.9 ± 1.4 kg/m3 and 976.2 ± 1.4 kg/m3 and 975.7 ± 1.4 kg/m3	965.7 ± 1.4 kg/m3 and 966.1 ± 1.4 kg/m3	–
10000 kPa, Falling or rolling sphere viscometry	–	–	82 ± 6.7 mPa·s and 81.7 ± 6.7 mPa·s
10000 kPa, Vibrating tube method	978.4 ± 1.4 kg/m3 and 978.8 ± 1.4 kg/m3 and 978.3 ± 1.4 kg/m3	968.4 ± 1.4 kg/m3 and 968.9 ± 1.4 kg/m3 and 968.5 ± 1.4 kg/m3	–
20000 kPa, Falling or rolling sphere viscometry	–	–	103 ± 9 mPa·s
20000 kPa, Vibrating tube method	983.5 ± 1.4 kg/m3 and 983.9 ± 1.4 kg/m3 and 983.4 ± 1.4 kg/m3	973.7 ± 1.4 kg/m3 and 974.2 ± 1.4 kg/m3 and 973.8 ± 1.4 kg/m3	–
30000 kPa, Falling or rolling sphere viscometry	–	–	130 ± 11 mPa·s and 129 ± 11 mPa·s
30000 kPa, Vibrating tube method	988.3 ± 1.4 kg/m3 and 988.6 ± 1.4 kg/m3 and 988.1 ± 1.4 kg/m3	978.7 ± 1.4 kg/m3 and 979.1 ± 1.4 kg/m3	–
40000 kPa, Falling or rolling sphere viscometry	–	–	162 ± 14 mPa·s
40000 kPa, Vibrating tube method	992.8 ± 1.4 kg/m3 and 993.1 ± 1.4 kg/m3 and 992.7 ± 1.4 kg/m3	983.4 ± 1.4 kg/m3 and 983.8 ± 1.4 kg/m3	–
50000 kPa, Falling or rolling sphere viscometry	–	–	202 ± 18 mPa·s and 201 ± 18 mPa·s
50000 kPa, Vibrating tube method	997.2 ± 1.4 kg/m3 and 997.5 ± 1.4 kg/m3 and 997 ± 1.4 kg/m3	988 ± 1.4 kg/m3 and 988.3 ± 1.4 kg/m3 and 987.9 ± 1.4 kg/m3	–
60000 kPa, Vibrating tube method	1001.4 ± 1.4 kg/m3 and 1001.7 ± 1.4 kg/m3 and 1001.3 ± 1.4 kg/m3	992.4 ± 1.4 kg/m3 and 992.8 ± 1.4 kg/m3 and 992.3 ± 1.4 kg/m3	–
70000 kPa, Vibrating tube method	1005.4 ± 1.4 kg/m3 and 1005.8 ± 1.4 kg/m3	996.6 ± 1.4 kg/m3 and 997 ± 1.4 kg/m3	–
